Reference: US20250312469A1 (CANGET BIOTEKPHARMA, priority 2024, published 2025)
Where two headings read alike, the source gives them in different places. Marks after values point to notes of the source that are not given here.

[1] = female dogs, Group 4, 4/4 mg/kg/dose, Day 15
[2] = female dogs, Group 4, 4/4 mg/kg/dose, Day −4
[3] = female dogs, Group 4, 4/4 mg/kg/dose, Day −4 (pre-dose)
[4] = male dogs, Group 4, 4/4 mg/kg/dose, Day 15
[5] = male dogs, Group 4, 4/4 mg/kg/dose, Day −4

CCC1(O)C(=O)OCc2c1cc1n(c2=O)Cc2cc3cc4c(cc3nc2-1)OCO4 (centres unmarked) [FL118]
RET count percentage, max decrease, male (Day 15 vs controls): 30.65% | leukocyte (WBC) counts, max decrease, male (Day 15 vs controls): 14.33% | neutrophils counts (#NEUT), max decrease, male (Day 15 vs controls): 18.67% | reticulocyte (RET) count absolute, max decrease, male (Day 15 vs controls): 33.4% | clinical signs (all treatment groups): abnormal stool | Cl (chloride), % Diff versus vehicle Group 1 (female dogs, Group 2, 2.5/[…], Day 15): 0% | Cl (chloride), % Diff versus vehicle Group 1 (female dogs, Group 2, 2.5/[…], Day −4 (pre-dose)): 0% | Cl (chloride), % Diff versus vehicle Group 1 (female dogs, Group 3, 3.3/[…], Day 15): −1% | Cl (chloride), % Diff versus vehicle Group 1 (female dogs, Group 3, 3.3/[…], Day −4 (pre-dose)): −1% | #EOS (eosinophils, absolute) % Diff vs Group 1 [1]: 6.45% | #LYMP (lymphocytes, absolute) % Diff vs Group 1 [1]: −12.61% | #NEUT % Diff [1]: 32.40% | #RET % Diff [1]: 61.4% | #RET Mean [1]: 60.5 10^9/L | % BASO (basophils, percent) % Diff vs Group 1 [1]: −46.7% | % BASO, basophils, percent, Mean [1]: 0.3% | % EOS (eosinophils, percent) % Diff vs Group 1 [1]: −5.6% | % EOS, eosinophils, percent, Mean [1]: 2.2% | % LYMP (lymphocytes, percent) % Diff vs Group 1 [1]: −21.4% | % LYMP, lymphocytes, percent, Mean [1]: 27.8% | % MONO (monocytes, percent) % Diff vs Group 1 [1]: −18.3% | % MONO, monocytes, percent, Mean [1]: 5.5% | % NEUT % Diff [1]: 17.0% | % NEUT Mean [1]: 63.9% | % RET % Diff [1]: 47.72% | ALB (albumin), % Diff versus vehicle Group 1 [1]: −1.6% | ALP (alkaline phosphatase), % Diff versus vehicle Group 1 [1]: −19% | ALP, alkaline phosphatase, Mean [1]: 110 U/L | ALT (alanine aminotransferase), % Diff versus vehicle Group 1 [1]: 24% | ALT, alanine aminotransferase, Mean [1]: 36 U/L | AST (aspartate aminotransferase), % Diff versus vehicle Group 1 [1]: −7% | AST, aspartate aminotransferase, Mean [1]: 29 U/L | BIL-T, total bilirubin, Mean [1]: 1.60 µmol/L | CK (creatine kinase), % Diff versus vehicle Group 1 [1]: −32% | CK, creatine kinase, Mean [1]: 200 U/L | CRE (creatinine), % Diff versus vehicle Group 1 [1]: 12% | CRE, creatinine, Mean [1]: 54 µmol/L | Ca, calcium, Mean [1]: 2.53 mmol/L | Cl (chloride), % Diff versus vehicle Group 1 [1]: 1% | GGT (gamma-glutamyltransferase), % Diff versus vehicle Group 1 [1]: 0% | GGT (gamma-glutamyltransferase), Mean [1]: 3 U/L | HCT % Diff [1]: 9.2% | HCT Mean [1]: 43.8% | HGB % Diff [1]: 9.5% | HGB Mean [1]: 14.8 g/dL | K (potassium), % Diff versus vehicle Group 1 [1]: −8.3% | MCH Mean [1]: 23.6 pg | MCHC % Diff [1]: −0.1% | MCHC Mean [1]: 33.9 g/dL | MCV % Diff [1]: −1.6% | MCV Mean [1]: 69.6 fL | MPV (mean platelet volume) % Diff vs Group 1 [1]: −6.3% | MPV, mean platelet volume, Mean [1]: 12.3 fL | P (inorganic phosphorus), % Diff versus vehicle Group 1 [1]: −11.74% | PLT (platelet count) % Diff vs Group 1 [1]: −12% | RBC % Diff [1]: 11.06% | RDW % Diff [1]: −2.9% | RDW Mean [1]: 12.5% | TCHO (total cholesterol), % Diff versus vehicle Group 1 [1]: −6.71% | TCHO, total cholesterol, Mean [1]: 3.52 mmol/L | TG (triglyceride), % Diff versus vehicle Group 1 [1]: −27.70% | TP (total protein), % Diff versus vehicle Group 1 [1]: 3.5% | TP, total protein, Mean [1]: 57.5 g/L | UREA (urea), % Diff versus vehicle Group 1 [1]: −3.71% | WBC % Diff [1]: 12.58% | sGLU (glucose), % Diff versus vehicle Group 1 [1]: 7.41% | sGLU, glucose, Mean [1]: 4.59 mmol/L | TG, triglyceride, Mean (female dogs, Group 4, 4/4 mg/kg/dose, Day 15, * p ≤ 0.05): 0.36* mmol/L | #BASO (basophils, absolute) % Diff vs Group 1 [2]: 0.00% | #EOS (eosinophils, absolute) % Diff vs Group 1 [2]: 18.46% | #LYMP (lymphocytes, absolute) % Diff vs Group 1 [2]: −9.70% | #MONO (monocytes, absolute) % Diff vs Group 1 [2]: 6.36% | #NEUT % Diff [2]: 45.57% | #RET % Diff [2]: −2.5% | % BASO (basophils, percent) % Diff vs Group 1 [2]: −25.0% | % BASO, basophils, percent, Mean [2]: 0.2% | % EOS (eosinophils, percent) % Diff vs Group 1 [2]: 4.5% | % EOS, eosinophils, percent, Mean [2]: 2.3% | % LYMP (lymphocytes, percent) % Diff vs Group 1 [2]: −25.5% | % LYMP, lymphocytes, percent, Mean [2]: 24.4% | % MONO (monocytes, percent) % Diff vs Group 1 [2]: −14.4% | % MONO, monocytes, percent, Mean [2]: 6.9% | % NEUT % Diff [2]: 17.0% | % RET Mean [2]: 0.71% | HCT % Diff [2]: 5.4% | HCT Mean [2]: 44.9% | HGB % Diff [2]: 7.3% | HGB Mean [2]: 15.1 g/dL | MCH Mean [2]: 23.4 pg | MCHC % Diff [2]: 1.8% | MCHC Mean [2]: 35.7 g/dL | MCV % Diff [2]: −1.8% | MPV, mean platelet volume, Mean [2]: 11.1 fL | PLT (platelet count) % Diff vs Group 1 [2]: −10% | RDW Mean [2]: 13.1% | WBC % Diff [2]: 23.46% | ALB (albumin), % Diff versus vehicle Group 1 [3]: 1.8% | ALP (alkaline phosphatase), % Diff versus vehicle Group 1 [3]: −19% | ALP, alkaline phosphatase, Mean [3]: 129 U/L | ALT (alanine aminotransferase), % Diff versus vehicle Group 1 [3]: −8% | ALT, alanine aminotransferase, Mean [3]: 25 U/L | AST (aspartate aminotransferase), % Diff versus vehicle Group 1 [3]: −11% | AST, aspartate aminotransferase, Mean [3]: 31 U/L | BIL-T (total bilirubin), % Diff versus vehicle Group 1 [3]: 23.23% | CK (creatine kinase), % Diff versus vehicle Group 1 [3]: −39% | CK, creatine kinase, Mean [3]: 233 U/L | CRE (creatinine), % Diff versus vehicle Group 1 [3]: 11% | CRE, creatinine, Mean [3]: 52 µmol/L | Ca (calcium), % Diff versus vehicle Group 1 [3]: −2.36% | Cl (chloride), % Diff versus vehicle Group 1 [3]: 2% | GGT (gamma-glutamyltransferase), % Diff versus vehicle Group 1 [3]: 0% | GGT (gamma-glutamyltransferase), Mean [3]: 3 U/L | GLB, globulin, Mean [3]: 27.3 g/L | K, potassium, Mean [3]: 4.3 mmol/L | Na (sodium), % Diff versus vehicle Group 1 [3]: 1% | Na, sodium, Mean [3]: 147 mmol/L | P (inorganic phosphorus), % Diff versus vehicle Group 1 [3]: −6.41% | P, inorganic phosphorus, Mean [3]: 1.61 mmol/L | TCHO (total cholesterol), % Diff versus vehicle Group 1 [3]: −6.71% | TCHO, total cholesterol, Mean [3]: 3.66 mmol/L | TG (triglyceride), % Diff versus vehicle Group 1 [3]: −11.26% | TG, triglyceride, Mean [3]: 0.45 mmol/L | TP, total protein, Mean [3]: 57.4 g/L | UREA, urea, Mean [3]: 4.17 mmol/L | sGLU (glucose), % Diff versus vehicle Group 1 [3]: −0.07% | NOAEL (for males): 4.4 mg/kg/dose | Cl (chloride) % Diff vs Group 1 (male dogs, Group 2, 2.5/[…], Day 15): 3% | Cl (chloride) % Diff vs Group 1 (male dogs, Group 2, 2.5/[…], Day −4): 2% | Cl (chloride) % Diff vs Group 1 (male dogs, Group 3, 3.3/[…], Day 15): 2% | Cl (chloride) % Diff vs Group 1 (male dogs, Group 3, 3.3/[…], Day −4): −1% | ALP (alkaline phosphatase) % Diff vs Group 1 [4]: −31% | ALT (alanine aminotransferase) % Diff vs Group 1 [4]: 4% | ALT, alanine aminotransferase, Mean [4]: 29 L⁻¹ | AST (aspartate aminotransferase) % Diff vs Group 1 [4]: −31% | BIL-T (total bilirubin (diasys)) % Diff vs Group 1 [4]: 31.07% | BIL-T (total bilirubin (diasys)) Mean [4]: 1.48 L⁻¹ | CK (creatine kinase) % Diff vs Group 1 [4]: −10% | CK, creatine kinase, Mean [4]: 281 U/L | GGT (gamma-glutamyltransferase), Mean [4]: 3 U/L | GLB, globulin, Mean [4]: 28.3* g/L | K (potassium) % Diff vs Group 1 [4]: −10.3% | K, potassium, Mean [4]: 4.4 mmol/L | Na (sodium) % Diff vs Group 1 [4]: 2% | Na, sodium, Mean [4]: 148 mmol/L | P, inorganic phosphorus, Mean [4]: 1.63 L⁻¹ | TCHO, total cholesterol, Mean [4]: 4.77 mmol/L | TG (triglyceride) % Diff vs Group 1 [4]: −15.79% | UREA (urea) % Diff vs Group 1 [4]: 2.96% | sGLU (glucose) % Diff vs Group 1 [4]: −6.55% | sGLU, glucose, Mean [4]: 4.47 L⁻¹ | ALB, albumin, Mean [5]: 11.0 g/L | ALP (alkaline phosphatase) % Diff vs Group 1 [5]: −5% | ALP, alkaline phosphatase, Mean [5]: 141 L⁻¹ | ALT (alanine aminotransferase) % Diff vs Group 1 [5]: 3% | ALT, alanine aminotransferase, Mean [5]: 25 L⁻¹ | AST (aspartate aminotransferase) % Diff vs Group 1 [5]: −3% | AST, aspartate aminotransferase, Mean [5]: 32 L⁻¹ | BIL-T (total bilirubin (diasys)) Mean [5]: 1.67 L⁻¹ | CK (creatine kinase) % Diff vs Group 1 [5]: 15% | CRE (creatinine) % Diff vs Group 1 [5]: 8% | Cl (chloride) % Diff vs Group 1 [5]: 1% | K (potassium) % Diff vs Group 1 [5]: −2.8% | K, potassium, Mean [5]: 4.7 mmol/L | Na (sodium) % Diff vs Group 1 [5]: 0% | Na, sodium, Mean [5]: 146 mmol/L | P, inorganic phosphorus, Mean [5]: 1.52 L⁻¹ | TCHO (total cholesterol) % Diff vs Group 1 [5]: −2.15% | TCHO, total cholesterol, Mean [5]: 4.85 mmol/L | TG (triglyceride) % Diff vs Group 1 [5]: −8.33% | TG, triglyceride, Mean [5]: 0.40 mmol/L | UREA, urea, Mean [5]: 4.25 L⁻¹ | sGLU, glucose, Mean [5]: 4.11 L⁻¹ | Total Bilirubin (BIL-T), max increase, females (vs control group): 16.14% | Total Bilirubin (BIL-T), max increase, males (vs control group): 47.34% | Triglyceride (TG), max decrease, females (vs control group): 37.84% | Triglyceride (TG), max decrease, males (vs control group): 22.56%
